Results on eight compounds are retold here after ChEMBL document CHEMBL3045406, “Enantioselective Relieving Activity of α-Methylbenzylphenylureas toward Bensulfuron-methyl Injury to Rice (Oryza sativa)” (Biosci Biotechnol Biochem, 1999).

The subject of series [1] is Oryza sativa. Kind of series: Effect on Oryza sativa (rice) assessed as growth rate at 1 uM relative to control. The class given is organism-based. The following applies: in vivo.
Series [2] concerns Oryza sativa. Briefly: Effect on Oryza sativa (rice) assessed as growth rate at 0.1 uM relative to control. The class given is organism-based. The following applies: in vivo.
Series [3] has as its system Oryza sativa. Briefly: Effect on Oryza sativa (rice) assessed as growth rate at 10 uM relative to control. The class given is organism-based. Conditions: in vivo.
For series [4], the system named is Oryza sativa. Kind of series: Safener indices, ratio of compound effect of Oryza sativa (rice) growth rate to relieving activity against bensulfuron-methyl induced injury to Oryza sativa growth rate at 10 uM.
For series [5], the system named is Oryza sativa. Briefly: Relieving activity against bensulfuron-methyl induced injury to Oryza sativa (rice) assessed as growth rate at 0.1 uM (Rbv = 46 to 53%). The class given is functional.
Series [6] deals with Oryza sativa. Briefly: Safener indices, ratio of compound effect of Oryza sativa (rice) growth rate to relieving activity against bensulfuron-methyl induced injury to Oryza sativa growth rate at 1 uM.
The test system of series [7] is Oryza sativa. Kind of series: Safener indices, ratio of compound effect of Oryza sativa (rice) growth rate to relieving activity against bensulfuron-methyl induced injury to Oryza sativa growth rate at 0.1 uM.
Series [8] relates to Oryza sativa. Kind of series: Relieving activity against bensulfuron-methyl induced injury to Oryza sativa (rice) assessed as growth rate at 10 uM (Rbv = 46 to 53%). Type of series: functional.
The nature of series [9]: Hydrophobicity, log K of the compound. Type of series: physicochemical. Conditions: octanol/water.
The test system of series [10] is Oryza sativa. Briefly: Relieving activity against bensulfuron-methyl induced injury to Oryza sativa (rice) assessed as growth rate at 1 uM (Rbv = 46 to 53%). Type of series: functional.

For `CCc1ccccc1NC(=O)N[C@@H](C)c1ccccc1`, the Activity in the series on Oryza sativa [1] came out at 100%; in the series on Oryza sativa [2], 100%; in the series with Oryza sativa [3] it was 95%; in the series with Oryza sativa [5] it was 51%; in the series on Oryza sativa [8], 71%; in the series on Oryza sativa [10] it was 57%. In addition, the Ratio with Oryza sativa [4] was determined as 44; in the series on Oryza sativa [6], 12; with Oryza sativa [7] it was 1. Further, the “log K” value in series [9] came out at 0.422.
On to `C[C@@H](NC(=O)Nc1cccc(F)c1F)c1ccccc1`, for which the Activity in the series on Oryza sativa [1] is listed as 99%; with Oryza sativa [2], 100%; in the series with Oryza sativa [3] it was 90%; with Oryza sativa [5], 53%; with Oryza sativa [8] it was 85%; in the series on Oryza sativa [10], 66%. The Ratio with Oryza sativa [4] was found to be 73; in the series on Oryza sativa [6], 31; in the series on Oryza sativa [7], 5. Moreover, in series [9], the “log K” value is listed as 0.435.
For the compound `C[C@@H](NC(=O)Nc1ccc(Cl)cc1Cl)c1ccccc1`, the Activity in the series on Oryza sativa [1] is given as 99%; in the series with Oryza sativa [2], 101%; with Oryza sativa [3], 100%; with Oryza sativa [5], 61%; in the series on Oryza sativa [8] it was 75%; in the series on Oryza sativa [10] it was 65%. The Ratio with Oryza sativa [4] amounted to 47; in the series on Oryza sativa [6], 29; with Oryza sativa [7], 20. Moreover, in [9], the “log K” value worked out at 0.688.
With `C[C@H](NC(=O)Nc1ccc(F)c(F)c1)c1ccccc1`, the Activity with Oryza sativa [1] is 100%; in the series with Oryza sativa [2], 99%; with Oryza sativa [3], 98%; in the series with Oryza sativa [5] it was 57%; in the series with Oryza sativa [8], 82%; with Oryza sativa [10], 70%. The figures for the Ratio with Oryza sativa [4], in the series with Oryza sativa [6] and in the series on Oryza sativa [7] were 64, 41 and 14, respectively. Also, in series [9], the “log K” value is listed as 0.398.
Consider `C[C@@H](NC(=O)Nc1cc(C(F)(F)F)ccc1F)c1ccccc1`, for which the Activity was determined as 70% in the series with Oryza sativa [1]; 87% in the series with Oryza sativa [2]; 60% in the series on Oryza sativa [3]; 53% with Oryza sativa [5]; 59% with Oryza sativa [8]; 55% in the series with Oryza sativa [10]. For the same compound, the results for the Ratio in the series on Oryza sativa [4], with Oryza sativa [6] and with Oryza sativa [7] were 40, 28 and 13, respectively. In addition, the “log K” value in series [9] is listed as 0.64.
Turning to `C[C@@H](NC(=O)Nc1ccccc1F)c1ccccc1`, the Activity is on record as 95% in the series with Oryza sativa [1]; 97% in the series with Oryza sativa [2]; 77% in the series with Oryza sativa [3]; 47% in the series on Oryza sativa [5]; 76% in the series with Oryza sativa [8]; 64% in the series with Oryza sativa [10]. The Ratio in the series on Oryza sativa [4] is listed as 62; with Oryza sativa [6], 32; with Oryza sativa [7] it was 3. Also, the “log K” value in [9] is on record as 0.367.
Consider `Cc1ccccc1NC(=O)N[C@@H](C)c1ccccc1`, for which the Activity is given as 99% in the series on Oryza sativa [1]; 100% in the series with Oryza sativa [2]; 99% in the series on Oryza sativa [3]; 52% in the series on Oryza sativa [5]; 79% with Oryza sativa [8]; 60% with Oryza sativa [10]. Further, the Ratio in the series on Oryza sativa [4] was 58; in the series with Oryza sativa [6], 21; with Oryza sativa [7], 5. The “log K” value in series [9] worked out at 0.337.
Turning to `CCCCCc1ccc(NC(=O)N[C@@H](C)c2ccccc2)cc1`, the Activity is 98% with Oryza sativa [1]; 98% in the series with Oryza sativa [2]; 93% with Oryza sativa [3]; 55% in the series with Oryza sativa [5]; 71% in the series on Oryza sativa [8]; 59% in the series with Oryza sativa [10]. Also, the Ratio in the series on Oryza sativa [4] was determined as 43; with Oryza sativa [6], 16; with Oryza sativa [7], 9. Moreover, in series [9], the “log K” value turned out to be 0.912.
